Source: patent US9855239B2, “Methods for the treatment and prevention of age-related retinal dysfunction” (University of Washington, priority 2008, dated 2018)
“Also recorded” adds a separate entry of the source.

How the values were obtained:
[1] = A2E accumulation in eyes after long-term treatment; type: in vivo, mouse
Description: (§1) To evaluate the safety of long-term administration of 9-cis-R-Ac, A2E accumulation was measured (FIG. 6A), because retinals spontaneously condense to this compound (Mata, N. L., Weng, J. & Travis, G. H. Proceedings of the National Academy of Sciences of the United States of America 97, 7154-7159 (2000); Parish, C. A., Hashimoto, M., Nakanishi, K., Dillon, J. & Sparrow, J. Proceedings of the National Academy of Sciences of the United States of America 95, 14609-14613 (1998)).
All experimental procedures related to extraction, derivatization and separation of retinoids were carried out under dim red light provided by a Kodak No. 1 safelight filter (transmittance>560 nm) as described previously (Van Hooser, J. P., et al. Proceedings of the National Academy of Sciences of the United States of America 97, 8623-8628 (2000); Van Hooser, J. P., et al. J Biol Chem, 277, 19173-19182 (2002); Maeda, A., et al. J Biol Chem 280, 18822-18832 (2005); Van Hooser, J. P., Garwin, G. G. & Saari, J. C. Methods Enzymol 316, 565-575 (2000)). […] The combined extracts were dried under argon and retinoids were separated by normal phase HPLC (Beckman, Ultrasphere-Si, 5 μm, 4.6×250 mm) with 10% ethyl acetate and 90% hexane at a flow rate of 1.4 ml/min and detected at 325 nm by an HPI 100 HPLC with a diode array detector and HP Chemstation A.03.03 software. […]

[2] = Hepatic retinoic acid levels after long-term treatment; type: in vivo, mouse; details: all groups
Description: as §1
Analysis of retinoic acid in the liver was carried out as described before (Batten, M. L., et al. PLoS Medicine 2, e333 (2005)) by an Agilent 1100 HPLC with two tandem normal phase columns: a Varian Microsorb Silica 3 μm, 4.6×100 mm (Varian, Palo Alto, Calif.) and an Ultrasphere-Si, 5 μm, 4.6×250 mm column. An isocratic solvent system of 1000:4.3:0.675 hexane:2-propanol:glacial acetic acid (v/v) was used at a flow rate of 1 ml/min at 20° C. with detection at 355 nm. Calibration was done with standards of all-trans-RA and 9-cis-RA purchased from Sigma-Aldrich.

[3] = test system: Lrat−/− and Rpe65−/− knockout mice; details: gastric gavage, Lrat−/− mice; cited from earlier work

CC(=O)OC/C=C(C)/C=C/C=C(C)\C=C\C1=C(C)CCCC1(C)C [9-cis-R-Ac, 9-cis-retinyl acetate]
amounts of A2E in eyes ([1]; all experimental groups (C1, C2, N1, N2, N3), FIG. 6B): did not differ significantly among all groups with the exception of N3, where they were slightly lower | A2E and iso-A2E levels in eyes ([1]; long-term treatment, treated vs control at 10 and 14 months of age): did not accumulate | hepatic retinoic acid levels [2]: below detectable levels; also recorded: did not accumulate | beneficial effects compared with 9-cis-retinal [3]: same beneficial effects as 9-cis-retinal
